This test has as its system Staphylococcus aureus. The class given is cell-based. As to conditions: vs water. As for the experimental part: These compounds are chosen so that the decimal logarithm of the mean number of viable bacteria adhering to reconstructed epidermis, after a test consisting in bringing the said epidermis into contact with the test compound for 2 hours at 37° C., is at least 0.3 less than that obtained by a test carried out with water under the same conditions.
The reconstructed epidermis used in the test indicated above is reconstructed human epidermis, equivalent to human skin, sold by EPISKIN.
The antiadhesion test corresponds to the protocol below:
Before bacterial adhesion, the reconstructed epidermis is brought into contact for 2 hours with 25 mg of the product to be tested at 37° C. 1 ml of bacterial suspension of Staphylococcus aureus at a concentration of […] in Tryptone salt is then added thereto. After incubating for 24 hours at 37° C., the bacterial suspension is emptied and five rinsings are carried out with 1 ml of sterile distilled water. The epidermis, detached from its support, is then ground with the aid of a food processor in 18 ml of Tryptone salt. A decimal dilution is carried out on this suspension in Tryptone salt, and 1 ml of the dilution is then inoculated into 15 ml of Trypticase Soy agar and the medium is incubated for 24 hours at 37° C. The adherent and viable cells are then counted.
This antiadhesion test makes it possible to evaluate the efficacy of molecules alone or of finished products.
The figures presented opposite the compound correspond to the reduction of the decimal logarithm of the mean number of viable Staphylococcus aureus adhering to reconstructed epidermis after treatment with the compound under the conditions defined by the preceding test compared with the decimal logarithm of the mean number of viable Staphylococcus aureus adhering to reconstructed epidermis after treatment with water under the same conditions.

The mark [1] stands for this setting: reconstructed human epidermis (EPISKIN) contacted 2 hours at 37° C. with 25 mg product, then 24 hours with bacterial suspension.

Where two headings read alike, the source gives them in different places.

Consider `CCCCCCCCOC(=O)CCCCC(=O)OCCCCCCCC` [Dioctyl adipate], for which the “reduction of the decimal logarithm of the mean number of viable Staphylococcus aureus adhering to reconstructed epidermis compared with water” value (“reduction of the decimal logarithm … with water” below) under setting [1] was 0.90.

Disodium cocoamphodiacetate: under setting [1], the “reduction of the decimal logarithm … with water” value was 1.34. “Ricinoleic monoethanolamide monosulphosuccinate salt”: the “reduction of the decimal logarithm … with water” value (tested at 5% active substance, epidermis contacted 2 hours at 37° C.) is 3.84. For the compound Tartrate of branched C12-C13 dialcohols, the “reduction of the decimal logarithm … with water” value under setting [1] is 2.31.

These data come from patent US20040047885A1, “Use of compounds which make it possible to modify the physicochemical properties of the skin and/or the mucous membranes as agents preventing or reducing the adhesion of microorganisms to the latter” (priority 2000, published 2004).
